Results on six compounds are retold here after patent US20210251991A1, “SUBSTITUTED 2,2'-BIPYRIMIDINYL COMPOUNDS, ANALOGUES THEREOF, AND METHODS USING SAME” (priority 2018, published 2021).

This assay deals with HBsAg in HepG2.2.15 cells. Description: HBsAg assay: inhibition of HBsAg in HepG2.2.15 cells (chemiluminescence immunoassay of supernatant). Particulars: Hepatitis B virus, HepG2.2.15, 144 h, read-out: sAg EC50, HepG2.2.15 cells, supernatant collected at day 6 after exposure, HBsAg CLIA. The class given is cell-based, hepatitis B virus. Summed up: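 HepG2.2.15 cells treated with serially diluted compounds (0.5% DMSO), medium and compound refreshed after 2-3 days; supernatant HBsAg measured by chemiluminescence immunoassay at day 6. EC50 from dose-response curves; viability assessed in parallel by CellTiter-Glo.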
In the case of `CCC1c2ccccc2CCN1c1cnc2c(NC)nccc2c1` (stereo not drawn) [Example 124, 3-(1-Ethyl-3,4-dihydroisoquinolin-2(1H)-yl)-N-methyl-1,7-naphthyridin-8-amine], the EC50 (as a rule, the midpoint of the concentration-response curve) came to 22 µM.

On to `CCC1c2cc(F)c(OC)cc2CCN1c1cnc2c(=O)n(C)cnc2c1` (stereo not drawn) [Example 125, 7-(1-Ethyl-7-fluoro-6-methoxy-3,4-dihydroisoquinolin-2(1H)-yl)-3-methylpyrido[3,2-d]pyrimidin-4(3H)-one], for which the EC50 is 1.6 µM.

For the compound `CCC1c2ccc(F)c(F)c2OCCN1c1ccnc(-c2ncccn2)n1` (stereo not drawn) [Example 126, 5-Ethyl-8,9-difluoro-4-(2-pyrimidin-2-ylpyrimidin-4-yl)-3,5-dihydro-2H-1,4-benzoxazepine], the EC50 is 28 µM.

Take `CCC1c2cc(F)c(OC)cc2CCN1c1ccnc(-c2ncccn2)n1` (stereo not drawn) [Example 127, 2-(2,2′-Bipyrimidin-4-yl)-1-ethyl-7-fluoro-6-methoxy-1,2,3,4-tetrahydroisoquinoline]: the concentration giving a half-maximal response (EC50) stood at 0.02 µM.

`CCC1c2cc(F)c(OC)cc2CCN1c1cnc(-c2ncccn2)nc1` (stereo not drawn) [Example 132, 2-(2,2′-Bipyrimidin-5-yl)-1-ethyl-7-fluoro-6-methoxy-1,2,3,4-tetrahydroisoquinoline]: the EC50 was 0.007 µM.

In the case of `CCC1c2cc(F)c(OC)cc2CCCN1c1ccnc(-c2ncccn2)n1` (stereo not drawn) [Example 135, 2-([2,2′-Bipyrimidin]-4-yl)-1-ethyl-8-fluoro-7-methoxy-2,3,4,5-tetrahydro-1H-benzo[c]azepine], the EC50 was 1 µM.
